Results reported in patent publication US20220389007A1, “INHIBITORS OF HUMAN IMMUNODEFICIENCY VIRUS REPLICATION” (VIIV HEALTHCARE UK (No. 5) LIMITED, priority 2019, published 2022).

Assays:
recombinant NL4-3 virus = assay: HIV cell culture assay (antiviral activity, luciferase readout); assay type: cell-based; settings: Human immunodeficiency virus 1, NL43, MT2, MT-2 cells infected for 4-5 days with recombinant NL4-3 virus carrying Renilla luciferase
Description: HIV cell culture assay—MT-2 cells, 293T cells and the proviral DNA clone of NL4-3 virus were obtained from the NIH AIDS Research and Reference Reagent Program. MT-2 cells were propagated in RPMI 1640 media supplemented with 10% heat inactivated fetal bovine serum (FBS), […]. The 293T cells were propagated in DMEM media supplemented with 10% heat inactivated FBS, […]. A recombinant NL4-3 proviral clone, in which a section of the nef gene was replaced with the Renilla luciferase gene, was used to make the reference virus used in these studies. The recombinant virus was prepared through transfection of the recombinant NL4-3 proviral clone into 293T cells using Transit-293 Transfection Reagent from Mirus Bio LLC (Madison, WI). Supernatent was harvested after 2-3 days and the amount of virus present was titered in MT-2 cells using luciferase enzyme activity as a marker by measuring luciferase enzyme activity. Luciferase was quantitated using the EnduRen Live Cell Substrate from Promega (Madison, Wis.). Antiviral activities of compounds toward the recombinant virus were quantified by measuring luciferase activity in MT-2 cells infected for 4-5 days with the recombinant virus in the presence of serial dilutions of the compound.
The 50% effective concentration (EC50) was calculated by using the exponential form of the median effect equation where (Fa)=1/[1+(ED50/drug conc.)m] (Johnson VA, Byington RT. Infectivity Assay. In Techniques in HIV Research. ed. Aldovini A, Walker BD. 71-76. New York: Stockton Press. 1990). The 50% inhibitory concentration (EC50) was calculated by using the exponential form of the median effect equation where percent inhibition=1/[1+(EC50/drug concentration)m], where m is a parameter that reflects the slope of the concentration-response curve.

[1] = Compound cytotoxicity, XTT-based colorimetric assay; assay type: cell-based; settings: human; uninfected MT2 cells, day 4, XTT assay
Description: Compound cytotoxicity and the corresponding CC50 values were determined using the same protocol as described in the antiviral assay except that uninfected cells were used. Cytotoxicity was assessed on day 4 in uninfected MT2 cells by using a XTT (2,3-bis[2-Methoxy-4-nitro-5-sulfophenyl]-2H-tetrazolium-5-carboxyanilide inner salt)-based colorimetric assay (Sigma-Aldrich, St Louis, Mo.).

Question: Which results are given for `Cn1nc(NS(C)(=O)=O)c2c(Cl)ccc(-n3c([C@H](Cc4cc(F)cc(F)c4)NC(=O)Cn4nc(C(F)F)c5c4C(F)(F)[C@@H]4C[C@H]54)nc4nc(-c5ccc(S(C)(=O)=O)cc5)ccc4c3=O)c21` (atropisomer, axis not shown; (P)) [Example 35, N-((S)-1-((3P)-3-(4-chloro-1-methyl-3-(methylsulfonamido)-1H-indazol-7-yl)-7-(4-(methylsuIfonyl)phenyl)-4-oxo-3,4-dihydropyrido[2,3-d]pyrimidin-2-yl)-2-(3,5-difluorophenyl)ethyl)-2-((3bS,4aR)-3-(difluoromethyl)-5,5-difluoro-3b,4,4a,5-tetrahydro-1H-cyclopropa[3,4]cyclopenta[1,2-c]pyrazol-1-yl)acetamide]?
Answer: EC50 (recombinant NL4-3 virus): 140 pM; CC50 at 4 day [1]: > 100000 pM

Question: For `Cn1nc(NS(C)(=O)=O)c2c(Cl)ccc(-n3c([C@H](Cc4cc(F)cc(F)c4)NC(=O)Cn4nc(C(F)F)c5c4C(F)(F)[C@@H]4C[C@H]54)nc4nc(-c5cnc(C(C)(F)F)s5)ccc4c3=O)c21` (atropisomer, axis not shown; (P)) [Example 99, N-((S)-1-((3P)-3-(4-chloro-1-methyl-3-(methylsulfonamido)-1H-indazol-7-yl)-7-(2-(1,1-difluoroethyl)thiazol-5-yl)-4-oxo-3,4-dihydropyrido[2,3-d]pyrimidin-2-yl)-2-(3,5-difluorophenyl)ethyl)-2-((3bS,4aR)-3-(difluoromethyl)-5,5-difluoro-3b,4,4a,5-tetrahydro-1H-cyclopropa[3,4]cyclopenta[1,2-c]pyrazol-1-yl)acetamide], which EC50 (recombinant NL4-3 virus) is on record?
Answer: 62 pM

Question: What about the CC50 at 4 day [1] of the same compound?
Answer: > 100000 pM

Question: Which EC50 (recombinant NL4-3 virus) does the source give for `Cn1nc(NS(C)(=O)=O)c2c(Cl)ccc(-n3c([C@H](Cc4cc(F)cc(F)c4)NC(=O)Cn4nc(C(F)F)c5c4C(F)(F)[C@@H]4C[C@H]54)nc4nc(-c5csc(C(C)(C)O)n5)ccc4c3=O)c21` (atropisomer, axis not shown; (P)) [Example 91, N-((S)-1-((3P)-3-(4-chloro-1-methyl-3-(methylsulfonamido)-1H-indazol-7-yl)-7-(2-(2-hydroxypropan-2-yl)thiazol-4-yl)-4-oxo-3,4-dihydropyrido[2,3-d]pyrimidin-2-yl)-2-(3,5-difluorophenyl)ethyl)-2-((3bS,4aR)-3-(difluoromethyl)-5,5-difluoro-3b,4,4a,5-tetrahydro-1H-cyclopropa[3,4]cyclopenta[1,2-c]pyrazol-1-yl)acetamide] here?
Answer: 37 pM

Question: And the CC50 at 4 day [1]?
Answer: > 100000 pM

Question: What does the source list for `Cn1nc(NS(C)(=O)=O)c2c(Cl)ccc(-n3c([C@H](Cc4cc(F)cc(F)c4)NC(=O)Cn4nc(C(F)F)c5c4C(F)(F)[C@@H]4C[C@H]54)nc4nc(-c5ccnc(C(F)(F)F)n5)ccc4c3=O)c21` (atropisomer, axis not shown; (P)) [Example 37, N-((S)-1-((3P)-3-(4-chloro-1-methyl-3-(methylsulfonamido)-1H-indazol-7-yl)-4-oxo-7-(2-(trifluoromethyl)pyrimidin-4-yl)-3,4-dihydropyrido[2,3-d]pyrimidin-2-yl)-2-(3,5-difluorophenyl)ethyl)-2-((3bS,4aR)-3-(difluoromethyl)-5,5-difluoro-3b,4,4a,5-tetrahydro-1H-cyclopropa[3,4]cyclopenta[1,2-c]pyrazol-1-yl)acetamide]?
Answer: EC50 (recombinant NL4-3 virus): 110 pM; CC50 at 4 day [1]: > 100000 pM

Question: For `Cn1nc(NS(C)(=O)=O)c2c(Cl)ccc(-n3c([C@H](Cc4cc(F)cc(F)c4)NC(=O)Cn4nc(C(F)F)c5c4C(F)(F)[C@@H]4C[C@H]54)nc4nc(-n5ccc(C(F)(F)F)n5)ccc4c3=O)c21` (atropisomer, axis not shown; (P)) [Example 65, N-((S)-1-((3P)-3-(4-chloro-1-methyl-3-(methylsulfonamido)-1H-indazol-7-yl)-4-oxo-7-(3-(trifluoromethyl)-1H-pyrazol-1-yl)-3,4-dihydropyrido[2,3-d]pyrimidin-2-yl)-2-(3,5-difluorophenyl)ethyl)-2-((3bS,4aR)-3-(difluoromethyl)-5,5-difluoro-3b,4,4a,5-tetrahydro-1H-cyclopropa[3,4]cyclopenta[1,2-c]pyrazol-1-yl)acetamide], which EC50 (recombinant NL4-3 virus) is on record?
Answer: 62 pM

Question: And the CC50 at 4 day [1]?
Answer: > 100000 pM

Question: With `Cn1nc(NS(C)(=O)=O)c2c(Cl)ccc(-n3c([C@H](Cc4cc(F)cc(F)c4)NC(=O)Cn4nc(C(F)F)c5c4C(F)(F)[C@@H]4C[C@H]54)nc4nc(-c5nccnc5Cl)ccc4c3=O)c21` (atropisomer, axis not shown; (P)) [Example 61, N-((S)-1-((3P)-3-(4-chloro-1-methyl-3-(methylsulfonamido)-1H-indazol-7-yl)-7-(3-chloropyrazin-2-yl)-4-oxo-3,4-dihydropyrido[2,3-d]pyrimidin-2-yl)-2-(3,5-difluorophenyl)ethyl)-2-((3bS,4aR)-3-(difluoromethyl)-5,5-difluoro-3b,4,4a,5-tetrahydro-1H-cyclopropa[3,4]cyclopenta[1,2-c]pyrazol-1-yl)acetamide] as the compound, how does the EC50 (recombinant NL4-3 virus) read?
Answer: 25 pM

Question: What about the CC50 at 4 day [1] of the same compound?
Answer: > 100000 pM

Question: Which EC50 (recombinant NL4-3 virus) does the source give for `Cc1cc(-c2ccc3c(=O)n(-c4ccc(Cl)c5c(NS(C)(=O)=O)nn(C)c45)c([C@H](Cc4cc(F)cc(F)c4)NC(=O)Cn4nc(C(F)F)c5c4C(F)(F)[C@@H]4C[C@H]54)nc3n2)nc(C(F)(F)F)n1` (atropisomer, axis not shown; (P)) [Example 18, N-((S)-1-((3P)-3-(4-chloro-1-methyl-3-(methylsulfonamido)-1H-indazol-7-yl)-7-(6-methyl-2-(trifluoromethyl)pyrimidin-4-yl)-4-oxo-3,4-dihydropyrido[2,3-d]pyrimidin-2-yl)-2-(3,5-difluorophenyl)ethyl)-2-((3bS,4aR)-3-(difluoromethyl)-5,5-difluoro-3 b,4,4a,5-tetrahydro-1H-cyclopropa[3,4]cyclopenta[1,2-c]pyrazol-1-yl)acetamide] here?
Answer: 68 pM

Question: And the CC50 at 4 day [1]?
Answer: > 100000 pM

Question: For `Cn1nc(NS(C)(=O)=O)c2c(Cl)ccc(-n3c([C@H](Cc4cc(F)cc(F)c4)NC(=O)Cn4nc(C(F)F)c5c4C(F)(F)[C@@H]4C[C@H]54)nc4nc(-c5cncnc5)ccc4c3=O)c21` (atropisomer, axis not shown; (P)) [Example 55, N-((S)-1-((3P)-3-(4-chloro-1-methyl-3-(methylsulfonamido)-1H-indazol-7-yl)-4-oxo-7-(pyrimidin-5-yl)-3,4-dihydropyrido[2,3-d]pyrimidin-2-yl)-2-(3,5-difluorophenyl)ethyl)-2-((3bS,4aR)-3-(difluoromethyl)-5,5-difluoro-3b,4,4a,5-tetrahydro-1H-cyclopropa[3,4]cyclopenta[1,2-c]pyrazol-1-yl)acetamide], which EC50 (recombinant NL4-3 virus) is on record?
Answer: 90 pM

Question: And the CC50 at 4 day [1]?
Answer: > 100000 pM

Question: With `Cn1nc(NS(C)(=O)=O)c2c(Cl)ccc(-n3c([C@H](Cc4cc(F)cc(F)c4)NC(=O)Cn4nc(C(F)F)c5c4C(F)(F)[C@@H]4C[C@H]54)nc4nc(-c5cnn(C6CC6)c5)ccc4c3=O)c21` (atropisomer, axis not shown; (P)) [Example 74, N-((S)-1-((3P)-3-(4-chloro-1-methyl-3-(methylsulfonamido)-1H-indazol-7-yl)-7-(1-cyclopropyl-1H-pyrazol-4-yl)-4-oxo-3,4-dihydropyrido[2,3-d]pyrimidin-2-yl)-2-(3,5-difluorophenyl)ethyl)-2-((3bS,4aR)-3-(difluoromethyl)-5,5-difluoro-3b,4,4a,5-tetrahydro-1H-cyclopropa[3,4]cyclopenta[1,2-c]pyrazol-1-yl)acetamide] as the compound, how does the EC50 (recombinant NL4-3 virus) read?
Answer: 54 pM

Question: And the CC50 at 4 day [1]?
Answer: > 100000 pM

Question: With `Cn1nc(NS(C)(=O)=O)c2c(Cl)ccc(-n3c([C@H](Cc4cc(F)cc(F)c4)NC(=O)Cn4nc(C(F)F)c5c4C(F)(F)[C@@H]4C[C@H]54)nc4nc(-c5cccc(OC(F)F)c5)ccc4c3=O)c21` (atropisomer, axis not shown; (P)) [Example 20, N-((S)-1-((3P)-3-(4-chloro-1-methyl-3-(methylsulfonamido)-1H-indazol-7-yl)-7-(3-(difluoromethoxy)phenyl)-4-oxo-3,4-dihydropyrido[2,3-d]pyrimidin-2-yl)-2-(3,5-difluorophenyl)ethyl)-2-((3bS,4aR)-3-(difluoromethyl)-5,5-difluoro-3b,4,4a,5-tetrahydro-1H-cyclopropa[3,4]cyclopenta[1,2-c]pyrazol-1-yl)acetamide] as the compound, how does the EC50 (recombinant NL4-3 virus) read?
Answer: 200 pM

Question: And the CC50 at 4 day [1]?
Answer: > 100000 pM
